Laboratory results reported in patent EP2832348B1, “METHOD FOR DISSOLVING FLAVONOID COMPOUND, CARBON GLYCOSIDE COMPOUND, OR STILBENE COMPOUND AND METHOD FOR PREPARING AN INJECTION OR A POWDER FOR INJECTION” (Kunming Pharmaceutical Corp., priority 2012, dated 2013).
Each block holds one compound with its values, some of them ahead of it.

Assay: Dissolving the compound with solubilizer in heated, vacuum-stirred water for injection under nitrogen or argon gas (preparation tank)
Type: physicochemical
Settings: kept at 80 °C
Procedure: In view of this, the present invention provides a method for dissolving a carbon glycoside compound or a stilbene compound, characterized in that the method comprises the following steps: • heating water for injection to 80-98 °C, followed by stirring under vacuum condition at 30-80 °C, and then adding the carbon glycoside compound or the stilbene compound along with a solubilizer under the protection of nitrogen gas or argon gas to obtain a solution of said compounds; • wherein the solubilizer is one or a mixture of two or more of gastrodin, water-soluble cyclodextrin and ethanol, and wherein the water-soluble cyclodextrin is one or a mixture of two or more of methyl-β-cyclodextrin, thioether-β-cyclodextrin and sulfobutyl ether-β-cyclodextrin; and • wherein the mass ratio of the carbon glycoside compound or the stilbene compound to the solubilizer is 1:1-20.
Disclosed is a method for dissolving a flavonoid compound, a carbon glycoside compound or a stilbene compound, including: • mixing the flavonoid compound, the carbon glycoside compound or the stilbene compound with a solubilizer to obtain a reactant; and • heating water for injection to 80-98 °C, followed by stirring under vacuum conditions at 30-80 °C, and then adding the reactant under the protection of nitrogen gas or argon gas to obtain a solution of the reactant.
Considering the sensitivity to heat or light of the flavonoid compound, the carbon glycoside compound or the stilbene compound, a method is provided by heating water for injection to 80-98 °C to remove dissolved oxygen and other gases in water, which reduces the surface tension of water, increases the contact area of water with the flavonoid compound, the carbon glycoside compound or the stilbene compound, thus increasing the dissolution speed. Meanwhile, pre-heating the water for injection can effectively avoid degradation of the flavonoid compound, the carbon glycoside compound or the stilbene compound due to exposure to the dissolved oxygen, to eliminate unstable factors of the flavonoid compound, the carbon glycoside compound or the stilbene compound. The vacuum conditions can achieve further deoxygenation, facilitating the dissolution of the flavonoid compound, the carbon glycoside compound or the stilbene compound in water. Nitrogen gas or argon gas provides an inert atmosphere, which further reduces the surface tension of the materials, increases the contact area of the flavonoid compound, the carbon glycoside compound or the stilbene compound with water, and increases the dissolution speed.

dissolved in (time) (Example 9: 10 g with Sulfobutyl ether-β-cyclodextrin 50 g, Sodium bicarbonate 1 g in 1000 ml, water heated to 90 °C, vacuum stirring 20 minutes, argon gas): about 5 minutes
Compound: O=c1cc(-c2ccccc2)oc2cc(O)c(O)c(O)c12 [Baicalein]

dissolved in (time) (Example 7: 10 g with Methyl-β-cyclodextrin 50 g, Sodium bicarbonate 1 g in 1000 ml, water heated to 80 °C, vacuum stirring 60 minutes, argon gas): about 5 minutes
Compound: O=c1c(-c2ccc(O)cc2)coc2cc(O)ccc12 [Daidzein]

dissolved in (time) (Example 13: 5 g with Gastrodin 100 g, Disodium edetate 0.1 g, Sodium carbonate 3 g in 1000 ml, water heated to 90 °C, vacuum stirring 25 minutes, nitrogen gas): about 5 minutes
Compound: O=C1CC(c2ccccc2)Oc2cc(O)c(O)c(O)c21 (centres unmarked) [Dihydrobaicalein]

dissolved in (time) (Example 15: 5 g with Gastrodin 100 g, Disodium edetate 0.1 g, Sodium carbonate 2 g in 1000 ml, water heated to 95 °C, vacuum stirring 10 minutes, nitrogen gas): about 5 minutes
Compound: COc1ccc([C@@H]2CC(=O)c3c(O)cc(O)cc3O2)cc1O [Hesperetin]

dissolved in (time) (Example 4: 25 g with Gastrodin 100 g, Thioether-β-cyclodextrin 50 g, Sodium carbonate 1 g in 1000 ml, water heated to 98 °C, vacuum stirring 5 minutes, argon gas): about 5 minutes
Compound: COc1ccc(-c2oc3cc(O)cc(O)c3c(=O)c2O)cc1 [Kaempferide]

dissolved in (time) (Example 12: 5 g with Gastrodin 100 g, Disodium edetate 0.1 g, Sodium carbonate 3 g in 1000 ml, water heated to 95 °C, vacuum stirring 10 minutes, nitrogen gas): about 5 minutes
Compound: Oc1ccc2c(c1)OC[C@H]1c3cc4c(cc3O[C@@H]21)OCO4 [Maackiain]

dissolved in (time) (Example 14: 5 g with Gastrodin 100 g, Disodium edetate 0.1 g, Sodium carbonate 2 g in 1000 ml, water heated to 98 °C, vacuum stirring 10 minutes, nitrogen gas): about 5 minutes
Compound: O=C1C[C@@H](c2ccc(O)cc2)Oc2cc(O)cc(O)c21 [Naringenin]

dissolved in (time) (Example 41: 25 g with Gastrodin 80 g, Sulfobutyl ether-β-cyclodextrin 30 g in 1000 ml, water heated to 85 °C, vacuum stirring 45 minutes, nitrogen gas): about 5 minutes | dissolved in (time) (Example 46: 5 g with Hydroxypropyl-β-cyclodextrin 30 g in 1000 ml, water heated to 83 °C, vacuum stirring 25 minutes, nitrogen gas): about 5 minutes | dissolved in (time) (Example 54: 10 g with Hydroxypropyl-β-cyclodextrin 50 g in 1000 ml, water heated to 95 °C, vacuum stirring 10 minutes, nitrogen gas): about 5 minutes | dissolved in (time) (Example 64: 5 g with Gastrodin 100 g in 1000 ml, water heated to 95 °C, vacuum stirring 10 minutes, nitrogen gas): about 5 minutes
Compound: OC[C@H]1O[C@@H](Oc2cc(O)cc(/C=C/c3ccc(O)cc3)c2)[C@H](O)[C@@H](O)[C@@H]1O [Polydatin]

dissolved in (time) (Example 5: 25 g with Gastrodin 100 g, Sulfobutyl ether-β-cyclodextrin 50 g, Sodium carbonate 1 g in 1000 ml, water heated to 95 °C, vacuum stirring 3 minutes, argon gas): about 5 minutes | dissolved in (time) (Example 6 (formula: Daidzin 10 g) with Hydroxypropyl-β-cyclodextrin 50 g, Sodium bicarbonate 1 g in 1000 ml, water heated to 95 °C, vacuum stirring 8 minutes, argon gas): about 5 minutes
Compound: O=c1c(-c2ccc(O)cc2)coc2c([C@@H]3O[C@H](CO)[C@@H](O)[C@H](O)[C@H]3O)c(O)ccc12 [Puerarin]

dissolved in (time) (Example 3: 25 g with Gastrodin 100 g, Methyl-β-cyclodextrin 50 g, Sodium carbonate 1 g in 1000 ml, water heated to 95 °C, vacuum stirring 1 minute, argon gas): about 5 minutes
Compound: O=c1c(O)c(-c2ccc(O)c(O)c2)oc2cc(O)cc(O)c12 [Quercetin]

dissolved in (time) (Example 39: 25 g with Gastrodin 80 g, Methyl-β-cyclodextrin 30 g in 1000 ml, water heated to 80 °C, vacuum stirring 60 minutes, nitrogen gas): about 5 minutes | dissolved in (time) (Example 44: 50 g with Gastrodin 100 g, Thioether-β-cyclodextrin 30 g in 1000 ml, water heated to 95 °C, vacuum stirring 10 minutes, nitrogen gas): about 5 minutes | dissolved in (time) (Example 50: 10 g with Hydroxypropyl-β-cyclodextrin 30 g in 1000 ml, water heated to 95 °C, vacuum stirring 10 minutes, nitrogen gas): about 5 minutes | dissolved in (time) (Example 60: 20 g with Thioether-β-cyclodextrin 50 g in 1000 ml, water heated to 95 °C, vacuum stirring 10 minutes, nitrogen gas): about 5 minutes
Compound: Oc1ccc(C=Cc2cc(O)cc(O)c2)cc1 [Resveratrol]

The next lines start with the compound.

Compound: CC(=O)Cc1cc(=O)c2c(C)cc(O)c([C@@H]3O[C@H](CO)[C@@H](O)[C@H](O)[C@H]3O)c2o1 [Aloesin]
dissolved in (time) (Example 22: 10 g with Hydroxypropyl-β-cyclodextrin 50 g, Sodium bicarbonate 1 g in 1000 ml, water heated to 88 °C, vacuum stirring 35 minutes, argon gas): about 5 minutes | dissolved in (time) (Example 26: 5 g with Gastrodin 100 g, Disodium edetate 0.1 g in 1000 ml, water heated to 95 °C, vacuum stirring 10 minutes, nitrogen gas): about 10 minutes

Compound: O=C(O)[C@H]1O[C@@H](Oc2cc3oc(-c4ccccc4)cc(=O)c3c(O)c2O)[C@H](O)[C@@H](O)[C@@H]1O [Baicalin]
dissolved in (time) (Example 10: 5 g with Gastrodin 100 g, Disodium edetate 0.1 g, Sodium carbonate 5 g in 1000 ml, water heated to 95 °C, vacuum stirring 10 minutes, nitrogen gas): about 5 minutes

Compound: O=C1c2c(O)cccc2C([C@@H]2O[C@H](CO)[C@@H](O)[C@H](O)[C@H]2O)c2cc(CO)cc(O)c21 (some centres unmarked) [Barbaloin]
dissolved in (time) (Example 19: 25 g with Gastrodin 100 g, Methyl-β-cyclodextrin 50 g, Sodium bicarbonate 1 g in 1000 ml, water heated to 95 °C, vacuum stirring 10 minutes, argon gas): about 10 minutes | dissolved in (time) (Example 23: 10 g with Methyl-β-cyclodextrin 50 g, Sodium bicarbonate 1 g in 1000 ml, water heated to 98 °C, vacuum stirring 10 minutes, argon gas): about 5 minutes | dissolved in (time) (Example 30: 5 g with Gastrodin 100 g, Disodium edetate 0.1 g in 1000 ml, water heated to 95 °C, vacuum stirring 10 minutes, nitrogen gas): about 10 minutes

Compound: COc1c(O)cc2c(c1O)[C@@H]1O[C@H](CO)[C@@H](O)[C@H](O)[C@H]1OC2=O [Bergenin]
dissolved in (time) (Example 21: 25 g with Gastrodin 100 g, Sulfobutyl ether-β-cyclodextrin 50 g, Sodium bicarbonate 1 g in 1000 ml, water heated to 85 °C, vacuum stirring 50 minutes, argon gas): about 10 minutes | dissolved in (time) (Example 25: 10 g with Sulfobutyl ether-β-cyclodextrin 50 g, Sodium bicarbonate 1 g in 1000 ml, water heated to 95 °C, vacuum stirring 10 minutes, argon gas): about 5 minutes | dissolved in (time) (Example 28: 5 g with Gastrodin 100 g, Disodium edetate 0.1 g in 1000 ml, water heated to 95 °C, vacuum stirring 10 minutes, nitrogen gas): about 10 minutes

Compound: COc1ccc(/C=C/c2cc(O)cc(O[C@@H]3O[C@H](CO)[C@@H](O)[C@H](O)[C@H]3O)c2)cc1 [Deoxyrhapontin (methyl polydatin), Deoxyrhapontin]
dissolved in (time) (Example 43: 50 g with Gastrodin 100 g, Methyl-β-cyclodextrin 30 g in 1000 ml, water heated to 98 °C, vacuum stirring 15 minutes, nitrogen gas): about 5 minutes | dissolved in (time) (Example 49: 5 g with Sulfobutyl ether-β-cyclodextrin 30 g in 1000 ml, water heated to 95 °C, vacuum stirring 10 minutes, nitrogen gas): about 5 minutes | dissolved in (time) (Example 57: 10 g with Hydroxypropyl-β-cyclodextrin 50 g (formula; text: sulfobutyl ether-β-cyclodextrin) in 1000 ml, water heated to 95 °C, vacuum stirring 10 minutes, nitrogen gas): about 5 minutes | dissolved in (time) (Example 67: 5 g with Gastrodin 100 g in 1000 ml, water heated to 95 °C, vacuum stirring 10 minutes, nitrogen gas): about 5 minutes

Compound: O=c1cc(-c2ccc(O)c(O)c2)oc2cc(O)c([C@@H]3O[C@H](CO)[C@@H](O)[C@H](O)[C@H]3O)c(O)c12 [Homoorientin]
dissolved in (time) (Example 20: 25 g with Gastrodin 100 g, Thioether-β-cyclodextrin 50 g, Sodium bicarbonate 1 g in 1000 ml, water heated to 80 °C, vacuum stirring 60 minutes, argon gas): about 10 minutes | dissolved in (time) (Example 24: 10 g with Thioether-β-cyclodextrin 50 g, Sodium bicarbonate 1 g in 1000 ml, water heated to 95 °C, vacuum stirring 10 minutes, argon gas): about 5 minutes

Compound: COc1ccc(/C=C/c2cc(O)cc(O[C@@H]3O[C@H](CO)[C@@H](O)[C@H](O)[C@H]3O)c2)cc1O [Rhapontin]
dissolved in (time) (Example 42: 50 g with Gastrodin 100 g, Hydroxypropyl-β-cyclodextrin 30 g in 1000 ml, water heated to 95 °C, vacuum stirring 10 minutes, nitrogen gas): about 5 minutes | dissolved in (time) (Example 48: 5 g with Thioether-β-cyclodextrin 30 g in 1000 ml, water heated to 92 °C, vacuum stirring 40 minutes, nitrogen gas): about 5 minutes | dissolved in (time) (Example 56: 10 g with Thioether-β-cyclodextrin 50 g in 1000 ml, water heated to 95 °C, vacuum stirring 10 minutes, nitrogen gas): about 5 minutes | dissolved in (time) (Example 66: 5 g with Gastrodin 100 g in 1000 ml, water heated to 95 °C, vacuum stirring 10 minutes, nitrogen gas): about 5 minutes

Compound: Breviscapine
dissolved in (time) (Example 1: 5 g with Gastrodin 100 g, Sodium carbonate 10 g in 1000 ml, water heated to 95 °C, vacuum stirring 10 minutes, nitrogen gas): about 5 minutes | dissolved in (time) (Example 2: 25 g with Gastrodin 100 g, Hydroxypropyl-β-cyclodextrin 50 g, Sodium carbonate 1 g in 1000 ml, water heated to 95 °C, vacuum stirring 10 minutes, argon gas): about 5 minutes | dissolved in (time) (Example 8 (formula: Wogonin 10 g) with Thioether-β-cyclodextrin 50 g, Sodium bicarbonate 1 g in 1000 ml, water heated to 85 °C, vacuum stirring 30 minutes, argon gas): about 5 minutes

Compound: Taxinine
dissolved in (time) (Example 16: 12 g with Sulfobutyl ether-β-cyclodextrin 40 g in 1000 ml, water heated to 95 °C, vacuum stirring 10 minutes, nitrogen gas): about 5 minutes
